One test deals with DU-145. The test can be described thus: Cytotoxic activity against human DU145 cells. It is filed as functional, cell-based.
Another test concerns NCI-H460. Put plainly: Cytotoxic activity against human NCI-H460 cells. The format is functional, cell-based.
Another test deals with Huh-7. Put plainly: Cytotoxic activity against human HuH7 cells. It is filed as functional, cell-based.
In another test the test system is MCF7. The test can be described thus: Cytotoxic activity against human MCF7 cells. It is filed as functional, cell-based.
A further test relates to SW1990. Put plainly: Cytotoxic activity against human SW1990 cells. The format is functional, cell-based.
Test [1] is described as follows: Cytotoxic activity against human SGC7901 cells. It is filed as functional, cell-based, SGC-7901.
The subject of the next test is HeLa. The test can be described thus: Cytotoxic activity against human HeLa cells. The format is functional, cell-based.
The mark [2] stands for this setting: Homo sapiens, DU-145, read-out: IC50.
Where [3] appears, read: Homo sapiens, NCI-H460, read-out: IC50.
The mark [4] stands for this setting: Homo sapiens, Huh-7, read-out: IC50.
[5] abbreviates: Homo sapiens, MCF7, read-out: IC50.
The mark [6] stands for this setting: Homo sapiens, SW1990, read-out: IC50.
Setting [7] is: Homo sapiens, SGC-7901, read-out: IC50.
Where [8] appears, read: Homo sapiens, HeLa, read-out: IC50.

In the case of `C[C@H]1CCC/C=C/C(=O)c2c(O)cc(O)cc2CC(=O)O1` [DEHYDROCURVULARIN], the IC50 (usually the concentration at which inhibition is half-maximal) in the test on DU-145 (setting [2]) came out at 6 µM; in the test with NCI-H460 (setting [3]), 5 µM; with Huh-7 (setting [4]), 5 µM; in the test with MCF7 (setting [5]), 4 µM; with SW1990 (setting [6]) it was 10 µM; in test [1] (setting [7]), 6 µM. Moreover, in the test with HeLa (setting [8]), the 50% inhibitory concentration (IC50) is 6 µM.
As for `COc1cccc2c1C(=O)c1c(O)c3c(c(O)c1C2=O)C[C@@](O)(C(=O)CO)C[C@@H]3O[C@H]1C[C@H](N)[C@H](O)[C@H](C)O1` [DOXORUBICIN], the IC50 in test [1] (setting [7]) was 0.011 µM.
On to `COC(=O)[C@H](O)CS[C@H]1CCC[C@H](C)OC(=O)Cc2cc(O)cc(O)c2C(=O)C1`, for which the IC50 with DU-145 (setting [2]) amounted to 6 µM; in the test on NCI-H460 (setting [3]) it was 3.8 µM; with Huh-7 (setting [4]) it was 3.9 µM; with MCF7 (setting [5]), 4.4 µM; in the test with SW1990 (setting [6]), 10 µM; in test [1] (setting [7]), 5.5 µM. Moreover, the IC50 in the test with HeLa (setting [8]) was found to be 6 µM.
For the molecule `CC1CCCCCC(=O)c2c(O)cc(O)cc2CC(=O)O1` (centres undefined) [CURVULARIN], the IC50 entry (in the test on DU-145 (du-145); in the test on NCI-H460 (nci-h460); in the test with Huh-7 (huh-7); with MCF7 (mcf7); in the test on SW1990 (sw1990); in test [1] (sgc-7901)) was “Not Active” throughout. The half-inhibitory concentration (IC50) entry in the test on HeLa (hela) is reported as “Not Active”.
As to `CC(=O)O[C@H]1C(=O)[C@@]2(C)[C@H]([C@H](OC(=O)c3ccccc3)[C@]3(O)C[C@H](OC(=O)[C@H](O)[C@@H](NC(=O)c4ccccc4)c4ccccc4)C(C)=C1C3(C)C)[C@]1(OC(C)=O)CO[C@@H]1C[C@@H]2O` [PACLITAXEL], the IC50 in the test on HeLa (setting [8]) came out at 12 µM.
For the molecule `O=c1[nH]cc(F)c(=O)[nH]1` [FLUOROURACIL], the half-inhibitory concentration (IC50) in the test on DU-145 (setting [2]) amounted to 3.4 µM.
`C[C@H]1CCC[C@H](SC[C@@H](O)C(=O)O)CC(=O)c2c(O)cc(O)cc2CC(=O)O1`: the IC50 amounted to 6 µM with DU-145 (setting [2]); 7 µM in the test with NCI-H460 (setting [3]); 5.1 µM in the test with Huh-7 (setting [4]); 4.4 µM with MCF7 (setting [5]); 11 µM in the test on SW1990 (setting [6]); 8.5 µM in test [1] (setting [7]). Further, the IC50 with HeLa (setting [8]) was determined as 6 µM.
With `Nc1ccn([C@@H]2O[C@H](CO)[C@@H](O)C2(F)F)c(=O)n1` [GEMCITABINE], in the test on SW1990 (setting [6]), the IC50 came out at 1.6 µM.
Take `CC(=O)OCCOC(=O)[C@@H](CS[C@H]1CCC[C@H](C)OC(=O)Cc2cc(O)cc(O)c2C(=O)C1)OC(C)=O`: the half-inhibitory concentration (IC50) in the test with DU-145 (setting [2]) was determined as 7 µM; in the test on NCI-H460 (setting [3]), 4.6 µM; in the test on Huh-7 (setting [4]) it was 5.5 µM; with MCF7 (setting [5]), 4.7 µM; in the test on SW1990 (setting [6]) it was 11 µM; in test [1] (setting [7]), 6.8 µM. In addition, the IC50 with HeLa (setting [8]) is 8 µM.

For the origin of these results see ChEMBL document CHEMBL3085646, “Sulfur-containing cytotoxic curvularin macrolides from Penicillium sumatrense MA-92, a fungus obtained from the rhizosphere of the mangrove Lumnitzera racemosa” (J Nat Prod, 2013).
